Active and inactive are the calls of the source. No cut-off for these calls is given here.
Legend:
MDA-MB-435 = assay: Growth inhibition of human MDA-MB-435 cells; format: functional
[1] = target: T1, DNA topoisomerase 1 (Homo sapiens) (UniProt P11387); assay: Inhibition of human topoisomerase 1 by DNA relaxation assay
T1 sequence (whole entry): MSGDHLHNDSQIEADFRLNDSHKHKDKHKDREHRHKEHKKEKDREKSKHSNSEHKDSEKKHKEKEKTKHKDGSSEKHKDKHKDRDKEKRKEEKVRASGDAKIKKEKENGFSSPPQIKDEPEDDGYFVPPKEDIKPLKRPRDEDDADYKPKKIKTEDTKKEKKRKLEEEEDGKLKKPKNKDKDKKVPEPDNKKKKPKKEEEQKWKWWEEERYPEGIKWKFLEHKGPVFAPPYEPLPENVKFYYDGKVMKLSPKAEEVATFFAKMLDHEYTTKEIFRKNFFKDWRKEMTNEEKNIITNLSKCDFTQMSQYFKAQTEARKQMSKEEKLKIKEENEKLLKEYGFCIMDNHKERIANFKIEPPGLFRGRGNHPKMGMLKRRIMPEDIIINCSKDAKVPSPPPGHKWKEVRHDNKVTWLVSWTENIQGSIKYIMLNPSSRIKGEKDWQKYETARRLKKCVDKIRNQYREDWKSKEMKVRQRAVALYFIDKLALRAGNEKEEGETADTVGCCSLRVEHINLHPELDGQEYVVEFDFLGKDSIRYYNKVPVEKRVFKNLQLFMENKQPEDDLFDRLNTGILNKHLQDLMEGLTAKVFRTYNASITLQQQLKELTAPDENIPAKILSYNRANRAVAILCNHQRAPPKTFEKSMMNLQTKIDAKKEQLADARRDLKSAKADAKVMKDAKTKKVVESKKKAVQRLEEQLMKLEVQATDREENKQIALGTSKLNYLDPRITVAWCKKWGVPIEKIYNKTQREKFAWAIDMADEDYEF

MCF7 = assay: Antitumor activity against human MCF7 cells at 0.1 uM assessed as cell growth; format: functional
NCI-H460 = assay: Antitumor activity against human NCI-H460 cells at 0.1 uM assessed as cell growth; format: functional
SF-268 = assay: Antitumor activity against human SF268 cells at 0.1 uM assessed as cell growth; format: functional
UACC-257 = assay: Growth inhibition of human UACC257 cells; format: functional
[2] = Growth inhibition of human NCI-H322 M cells; format: functional; settings: NCI-H322M

| SMILES | Activity [1] | Activity (MCF7) | Activity (NCI-H460) | Activity (SF-268) | other results |
| --- | --- | --- | --- | --- | --- |
| CN(C)CCCNC(=O)c1cc(NC(=O)c2cc(NC(=O)CCCN3c4ccccc4C=Cc4ccccc43)cn2C)cn1C | – | – | – | – | GI50 (MDA-MB-435): 57.5 µM |
| CN(C)CCCNC(=O)c1cc(NC(=O)c2cc(NC(=O)Cn3c4ccccc4c(=O)c4ccccc43)cn2C)cn1C | inactive | – | – | – | – |
| CN(C)CCCNC(=O)c1cc(NC(=O)c2cc(NC(=O)CCCn3c4ccccc4c(=O)c4ccccc43)cn2C)cn1C | inactive | 48% | 47% | – | – |
| CN(C)CCCNC(=O)c1cc(NC(=O)CCNS(=O)(=O)c2ccc3c(c2)C(=O)c2ccccc2C3=O)cn1C | – | 1% | 1% | 2% | GI50 (UACC-257): 54.4 µM |
| CN(C)CCCNC(=O)c1cc(NC(=O)c2cc(NC(=O)CCNS(=O)(=O)c3ccc4c(c3)C(=O)c3ccccc3C4=O)cn2C)cn1C | – | 27% | 84% | 98% | GI50 [2]: 35.7 µM |
| CN(C)CCCNC(=O)c1cc(NC(=O)CCNC(=O)c2ccc3c(c2)C(=O)c2ccccc2C3=O)cn1C | – | 32% | 103% | 113% | – |
| CN(C)CCCNC(=O)c1cc(NC(=O)c2cc(NC(=O)CCNC(=O)c3c4ccccc4nc4ccccc34)cn2C)cn1C | inactive | – | – | – | – |
| CN(C)CCCNC(=O)c1cc(NC(=O)c2cc(NC(=O)CCCN3C(=O)c4cccc5cc([N+](=O)[O-])cc(c45)C3=O)cn2C)cn1C | inactive | – | – | – | – |
| CN(C)CCCNC(=O)c1cc(NC(=O)c2cc(NC(=O)CCn3c4ccccc4c(=O)c4ccccc43)cn2C)cn1C | – | – | 52% | – | – |
| CN(C)CCCNC(=O)c1cc(NC(=O)c2cc(NC(=O)CCCN3C(=O)c4cccc5cccc(c45)C3=O)cn2C)cn1C | inactive | – | – | – | – |

From ChEMBL document CHEMBL1147997, “Design, synthesis and biological evaluation of new oligopyrrole carboxamides linked with tricyclic DNA-intercalators as potential DNA ligands or topoisomerase inhibitors” (2007)
